Measurements published in patent publication US7858635B2 (priority 2005, dated 2010).

Tests used:
[1] = molecular target: T1, M1 muscarinic receptor (Homo sapiens, UniProt P11229); assay: Functional mobilization of intracellular calcium (FLIPR, Fluo-3), M1-CHO cells; type: cell-based; details: compound nos. 1-454; for Emax: 100% efficacy is the maximum response obtained with the Carbachol control, read-out: M1 Efficacy; for M1 Activity: M1-CHO cells, calcium mobilization
T1 construct: expressed in transfected cells; host or cells: CHO cells (M1-CHO, under zeocin and G418 selection)
T1 sequence (P11229 1-460): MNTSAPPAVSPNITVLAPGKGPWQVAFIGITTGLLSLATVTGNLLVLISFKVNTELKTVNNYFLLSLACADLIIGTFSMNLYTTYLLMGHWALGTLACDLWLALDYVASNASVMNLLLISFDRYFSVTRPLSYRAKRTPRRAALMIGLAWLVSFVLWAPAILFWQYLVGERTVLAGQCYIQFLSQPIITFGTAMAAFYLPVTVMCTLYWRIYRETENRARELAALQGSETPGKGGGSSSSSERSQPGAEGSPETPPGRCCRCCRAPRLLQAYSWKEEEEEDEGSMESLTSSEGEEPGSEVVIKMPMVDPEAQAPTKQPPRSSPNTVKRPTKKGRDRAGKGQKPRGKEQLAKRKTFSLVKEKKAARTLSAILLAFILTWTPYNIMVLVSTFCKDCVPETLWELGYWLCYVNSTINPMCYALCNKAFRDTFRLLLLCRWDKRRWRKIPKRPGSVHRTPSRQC
Method in brief: (§1)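 CHO lines stably carrying the muscarinic subtype, dye-loaded with Fluo-3 at 37° C for 60-90 min, receive test compound in 0.5% DMSO. Agonist effects are read directly; antagonist effects against carbachol at EC80 after 15 min pre-incubation.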

[2] = molecular target: T2, M4 muscarinic receptor (Homo sapiens, UniProt P08173); assay: Functional mobilization of intracellular calcium (FLIPR, Fluo-3), M4-CHO cells; type: cell-based; details: compound nos. 1-454; for Emax: 100% efficacy is the maximum response obtained with the Carbachol control, read-out: M4 Efficacy; for M4 Activity: M4-CHO cells, calcium mobilization
T2 construct: expressed in transfected cells; host or cells: CHO cells (M4-CHO, under puromycin, zeocin and blasticidin selection)
T2 sequence (P08173 1-479): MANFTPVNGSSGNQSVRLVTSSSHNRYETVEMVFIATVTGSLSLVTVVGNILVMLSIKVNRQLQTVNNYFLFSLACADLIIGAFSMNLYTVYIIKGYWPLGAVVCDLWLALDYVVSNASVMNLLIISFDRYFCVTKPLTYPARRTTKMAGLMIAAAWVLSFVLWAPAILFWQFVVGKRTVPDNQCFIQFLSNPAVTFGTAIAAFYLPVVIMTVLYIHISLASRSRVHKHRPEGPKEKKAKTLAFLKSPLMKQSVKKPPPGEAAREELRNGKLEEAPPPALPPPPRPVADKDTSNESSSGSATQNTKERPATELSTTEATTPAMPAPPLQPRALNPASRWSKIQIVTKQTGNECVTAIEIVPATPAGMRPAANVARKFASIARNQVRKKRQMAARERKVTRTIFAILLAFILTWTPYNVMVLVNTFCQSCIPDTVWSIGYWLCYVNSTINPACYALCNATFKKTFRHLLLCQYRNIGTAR
Method in brief: as §1

SMILES: C#CCOC(=O)N1CCC(CN2CCC3(CC2)CN(C(C)=O)c2ccc(F)cc23)CC1 [compound 316]
- Emax [1]: < 65%
- M1 Activity [1]: + (activity was measured to be greater than or equal to 3.0 μM)
- Emax [2]: < 55%
- M4 Activity [2]: + (activity was measured to be greater than or equal to 4.0 μM)

SMILES: CCOC(=O)N1CCC(N2CCC3(CC2)CN(C(=O)CC)c2ccc(F)cc23)CC1 [compound 317]
- Emax [1]: < 65%
- M1 Activity [1]: + (activity was measured to be greater than or equal to 3.0 μM)
- Emax [2]: < 55%
- M4 Activity [2]: + (activity was measured to be greater than or equal to 4.0 μM)

SMILES: CCOC(=O)N1C2CCC1CC(N1CCC3(CC1)CC(NC(C)=O)c1ccccc13)C2 (centres unmarked) [compound 318]
- Emax [1]: 65 to 85%
- M1 Activity [1]: +++ (activity was measured to be less than or equal to 0.7 μM)
- Emax [2]: > 70%
- M4 Activity [2]: +++ (activity was measured to be less than or equal to 0.1 μM)

SMILES: CCOC(=O)N1CCC(CN2CCC3(CC2)C(=O)Nc2ccccc23)CC1 [compound 319]
- Emax [1]: < 65%
- M1 Activity [1]: ++ (activity was measured to be between 0.7 μM and 3.0 μM)
- Emax [2]: < 55%
- M4 Activity [2]: + (activity was measured to be greater than or equal to 4.0 μM)

SMILES: CC(C)OC(=O)N1C2CCC1CC(N1CCC3(CC1)COc1ccc(F)cc13)C2 (centres unmarked) [compound 320]
- Emax [1]: 65 to 85%
- M1 Activity [1]: ++ (activity was measured to be between 0.7 μM and 3.0 μM)
- Emax [2]: < 55%
- M4 Activity [2]: + (activity was measured to be greater than or equal to 4.0 μM)

SMILES: CCOC(=O)N1CCC(N2CCC3(CC2)CN(C(=O)c2ccno2)c2ccc(F)cc23)CC1 [compound 321]
- Emax [1]: 65 to 85%
- M1 Activity [1]: ++ (activity was measured to be between 0.7 μM and 3.0 μM)
- Emax [2]: 55 to 70%
- M4 Activity [2]: + (activity was measured to be greater than or equal to 4.0 μM)

SMILES: CCOC(=O)N1C2CCC1CC(N1CCC3(CC1)CN(C(C)=O)c1c(F)cccc13)C2 (centres unmarked) [compound 322]
- Emax [1]: < 65%
- M1 Activity [1]: ++ (activity was measured to be between 0.7 μM and 3.0 μM)
- Emax [2]: > 70%
- M4 Activity [2]: +++ (activity was measured to be less than or equal to 0.1 μM)

SMILES: CC(=O)N[C@@H]1CC2(CCN([C@@H]3C[C@@H]4CC[C@@H]3C4)CC2)c2ccccc21 [compound 323]
- Emax [1]: 65 to 85%
- M1 Activity [1]: ++ (activity was measured to be between 0.7 μM and 3.0 μM)
- Emax [2]: 55 to 70%
- M4 Activity [2]: + (activity was measured to be greater than or equal to 4.0 μM)

SMILES: CCCC(=O)N1CC2(CCN(C3CCN(C(=O)OCC)CC3)CC2)c2cc(F)ccc21 [compound 324]
- Emax [1]: 65 to 85%
- M1 Activity [1]: ++ (activity was measured to be between 0.7 μM and 3.0 μM)
- Emax [2]: 55 to 70%
- M4 Activity [2]: + (activity was measured to be greater than or equal to 4.0 μM)

SMILES: Fc1ccc2c(c1)C1(CCN(C3CCCCC3)CC1)CN2 [compound 325]
- Emax [1]: 65 to 85%
- M1 Activity [1]: + (activity was measured to be greater than or equal to 3.0 μM)
- Emax [2]: < 55%
- M4 Activity [2]: + (activity was measured to be greater than or equal to 4.0 μM)

SMILES: CCOC(=O)N[C@H]1CC2(CCN(C[C@H]3C[C@H]4CC[C@H]3C4)CC2)c2ccccc21 [compound 326]
- Emax [1]: < 65%
- M1 Activity [1]: + (activity was measured to be greater than or equal to 3.0 μM)
- Emax [2]: < 55%
- M4 Activity [2]: + (activity was measured to be greater than or equal to 4.0 μM)

SMILES: CCOC(=O)N1CCC(CN2CCC3(CC2)C(=O)N(C)c2ccccc23)CC1 [compound 327]
- Emax [1]: < 65%
- M1 Activity [1]: + (activity was measured to be greater than or equal to 3.0 μM)
- Emax [2]: < 55%
- M4 Activity [2]: + (activity was measured to be greater than or equal to 4.0 μM)

SMILES: CCCC1CCC(N2CCC3(CC2)CNc2ccc(F)cc23)CC1 (centres unmarked) [compound 328]
- Emax [1]: < 65%
- M1 Activity [1]: ++ (activity was measured to be between 0.7 μM and 3.0 μM)
- Emax [2]: 55 to 70%
- M4 Activity [2]: + (activity was measured to be greater than or equal to 4.0 μM)

SMILES: CCCOC(=O)N1C2CCC1CC(N1CCC3(CC1)CN(C(=O)OC1CCC1)c1ccc(F)cc13)C2 (centres unmarked) [compound 329]
- Emax [1]: 65 to 85%
- M1 Activity [1]: +++ (activity was measured to be less than or equal to 0.7 μM)
- Emax [2]: < 55%
- M4 Activity [2]: + (activity was measured to be greater than or equal to 4.0 μM)

SMILES: CCOC(=O)N1CCC(N2CCC3(CC2)CN(C(=O)c2ccc(C)cc2)c2ccc(F)cc23)CC1 [compound 330]
- Emax [1]: < 65%
- M1 Activity [1]: + (activity was measured to be greater than or equal to 3.0 μM)
- Emax [2]: < 55%
- M4 Activity [2]: + (activity was measured to be greater than or equal to 4.0 μM)

SMILES: CCOC(=O)N1CCC(N2CCC3(CC2)CN(C(=O)c2ccccn2)c2ccc(F)cc23)CC1 [compound 331]
- Emax [1]: < 65%
- M1 Activity [1]: ++ (activity was measured to be between 0.7 μM and 3.0 μM)
- Emax [2]: < 55%
- M4 Activity [2]: + (activity was measured to be greater than or equal to 4.0 μM)

SMILES: Clc1ccc2c(c1)C1(CCN(C3CCCCCC3)CC1)CN2 [compound 333]
- Emax [1]: < 65%
- M1 Activity [1]: + (activity was measured to be greater than or equal to 3.0 μM)
- Emax [2]: < 55%
- M4 Activity [2]: + (activity was measured to be greater than or equal to 4.0 μM)

SMILES: CCCC1CCC(N2CCC3(CC2)CNc2ccccc23)CC1 (centres unmarked) [compound 334]
- Emax [1]: < 65%
- M1 Activity [1]: + (activity was measured to be greater than or equal to 3.0 μM)
- Emax [2]: < 55%
- M4 Activity [2]: + (activity was measured to be greater than or equal to 4.0 μM)

SMILES: CCOC(=O)N1CCC(N2CCC3(CC2)CN(C(=O)c2cc(C)oc2C)c2ccc(F)cc23)CC1 [compound 335]
- Emax [1]: < 65%
- M1 Activity [1]: + (activity was measured to be greater than or equal to 3.0 μM)
- Emax [2]: < 55%
- M4 Activity [2]: + (activity was measured to be greater than or equal to 4.0 μM)

SMILES: O=C(O[C@@H]1CCOC1)N1C2CCC1CC(N1CCC3(CC1)C(=O)Nc1ccccc13)C2 (some centres unmarked) [compound 336]
- Emax [1]: < 65%
- M1 Activity [1]: + (activity was measured to be greater than or equal to 3.0 μM)
- Emax [2]: < 55%
- M4 Activity [2]: + (activity was measured to be greater than or equal to 4.0 μM)

SMILES: CC(=O)N[C@H]1CC2(CCN(C3CC4CCC(C4)C3)CC2)c2ccccc21 (some centres unmarked) [compound 337]
- Emax [1]: < 65%
- M1 Activity [1]: + (activity was measured to be greater than or equal to 3.0 μM)
- Emax [2]: < 55%
- M4 Activity [2]: + (activity was measured to be greater than or equal to 4.0 μM)

SMILES: O=C(O[C@@H]1CCOC1)N1C2CCC1CC(N1CCC3(CC1)COc1ccc(F)cc13)C2 (some centres unmarked) [compound 338]
- Emax [1]: < 65%
- M1 Activity [1]: + (activity was measured to be greater than or equal to 3.0 μM)
- Emax [2]: < 55%
- M4 Activity [2]: + (activity was measured to be greater than or equal to 4.0 μM)

SMILES: CC(=O)N(C)[C@H]1CC2(CCN(C[C@H]3C[C@H]4CC[C@H]3C4)CC2)c2ccccc21 [compound 339]
- Emax [1]: < 65%
- M1 Activity [1]: + (activity was measured to be greater than or equal to 3.0 μM)
- Emax [2]: < 55%
- M4 Activity [2]: + (activity was measured to be greater than or equal to 4.0 μM)
